Structures are written as SMILES.

The target of this assay is T1, human RXFP1 (Homo sapiens, UniProt Q9HBX9).
T1 construct: expressed in transfected cells
T1 sequence (Q9HBX9 1-757): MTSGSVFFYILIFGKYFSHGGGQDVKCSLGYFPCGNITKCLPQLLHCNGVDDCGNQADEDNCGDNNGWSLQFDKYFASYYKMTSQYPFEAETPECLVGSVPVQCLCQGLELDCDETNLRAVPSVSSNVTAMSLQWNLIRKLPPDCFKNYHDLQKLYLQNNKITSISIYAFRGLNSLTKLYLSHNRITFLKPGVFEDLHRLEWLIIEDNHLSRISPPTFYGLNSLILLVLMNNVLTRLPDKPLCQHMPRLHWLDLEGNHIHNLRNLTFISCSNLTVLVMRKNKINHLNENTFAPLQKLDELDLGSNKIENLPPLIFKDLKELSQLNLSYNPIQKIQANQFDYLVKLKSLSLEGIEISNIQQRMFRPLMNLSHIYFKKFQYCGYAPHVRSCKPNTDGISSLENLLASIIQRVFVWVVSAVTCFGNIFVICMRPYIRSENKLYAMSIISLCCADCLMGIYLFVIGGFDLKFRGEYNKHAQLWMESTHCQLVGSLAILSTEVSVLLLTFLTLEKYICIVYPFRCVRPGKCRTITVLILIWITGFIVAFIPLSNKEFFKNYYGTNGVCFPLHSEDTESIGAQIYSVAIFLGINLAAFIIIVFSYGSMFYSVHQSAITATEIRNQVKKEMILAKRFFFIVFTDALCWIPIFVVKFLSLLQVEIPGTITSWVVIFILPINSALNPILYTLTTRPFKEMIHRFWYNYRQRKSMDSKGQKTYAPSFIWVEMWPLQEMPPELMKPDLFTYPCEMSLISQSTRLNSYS
As to the kind of experiment: hRXFP1 HEK293 cAMP assay (HTRF). The conditions noted are these: HEK293 cells stably expressing human RXFP1; 30 min at rt; intracellular cAMP by HTRF. The assay is classed as cell-based. A digest of the protocol:
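Agonism is measured as cAMP by HTRF, quantified from a standard curve via the 665/590 nm ratio and fitted with a four-parameter logistic equation. Compounds (0.010 nM to 50 μM final, 2% DMSO) were applied for 30 min at rt to human RXFP1-expressing HEK293 cells in assay buffer containing 0.5 mM IBMX.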
The molecule `COc1ccc(C2CCCN(CC(=O)N(C)C)C2)cc1C(=O)Nc1c(C(=O)Nc2ccc(F)c(C(F)(F)F)c2)sc2cc(C(F)(F)F)ccc12` (single isomer, unassigned) [Example 101, 3-(5-(1-(2-(dimethylamino)-2-oxoethyl)piperidin-3-yl)-2-methoxy-benzamido)-N-(4-fluoro-3-(trifluoromethyl)phenyl)-6-(trifluoromethyl) benzo[b] thiophene-2-carboxamide] gave an EC50 of 4.42 µM.

On to `COc1ccc(C2=NOC3CS(=O)(=O)CC23)cc1C(=O)Nc1c(C(=O)Nc2ccc(F)c(C(F)(F)F)c2)sc2cc(C(F)(F)F)ccc12` (stereo not drawn) [Example 52, 3-(5-(5,5-dioxido-3a, 4,6,6a-tetrahydrothieno[3,4-d]isoxazol-3-yl)-2-methoxybenzamido)-N-(4-fluoro-3-(trifluoromethyl)phenyl)-6-(trifluoromethyl)benzo[b]thiophene-2-carboxamide], for which it took 0.166 µM to reach a half-maximal effect (EC50). Compared with the last molecule, the EC50 is about 27-fold lower.

Molecule `COc1ccc(C2CCCN(CC(=O)N(C)C)C2)cc1C(=O)Nc1c(C(=O)Nc2ccc(F)c(C(F)(F)F)c2)sc2cc(C(F)(F)F)ccc12` (single isomer, unassigned) [Example 82, 3-(5-(1-(2-(dimethylamino)-2-oxoethyl)piperidin-3-yl)-2-methoxy-benzamido)-N-(4-fluoro-3-(trifluoromethyl)phenyl)-6-(trifluoromethyl) benzo[b] thiophene-2-carboxamide] came in with a concentration for a half-maximal effect (EC50) of 0.978 µM. Regarding `COc1ccc(C2=NC(C(=O)N3CC(CO)C3)CO2)cc1C(=O)Nc1c(C(=O)Nc2ccc(F)c(C(F)(F)F)c2)sc2cc(C(F)(F)F)ccc12` (stereo not drawn) [Example 282, N-[4-fluoro-3-(trifluoromethyl)phenyl]-3-(5-{4-[3-(hydroxymethyl)azetidine-1-carbonyl]-4,5-dihydro-1,3-oxazol-2-yl}-2-methoxy-benzamido)-6-(trifluoromethyl)-1-benzothiophene-2-carboxamide], the EC50 came to 0.0096 µM. In the case of `COc1ccc(N2CCC[C@@H](NC(=O)CN(C)C)C2)cc1C(=O)Nc1c(C(=O)Nc2ccc(F)c(C(F)(F)F)c2)sc2cc(C(F)(F)F)ccc12` [Example 209, (R)-3-(5-(3-(2-(dimethylamino)acetamido)piperidin-1-yl)-2-methoxy-benzamido)-N-(4-fluoro-3-(trifluoromethyl)phenyl)-6-(trifluoromethyl) benzo[b] thiophene-2-carboxamide] it was 1.48 µM; in that of `COc1ccc(C2CCN(C(=O)C(C)(C)CO)C2)cc1C(=O)Nc1c(C(=O)Nc2ccc(F)c(C(F)(F)F)c2)sc2cc(C(F)(F)F)ccc12` (single isomer, unassigned) [Example 139, N-(4-fluoro-3-(trifluoromethyl)phenyl)-3-(5-(1-(3-hydroxy-2,2-dimethyl-propanoyl)pyrrolidin-3-yl)-2-methoxy-benzamido)-6-(trifluoromethyl) benzo[b] thiophene-2-carboxamide], 0.0726 µM; in that of `COc1ccc(C2=NOC3(CCN(C(=O)CO)CC3)C2)cc1C(=O)Nc1c(C(=O)Nc2ccc(F)c(C(F)(F)F)c2)sc2cc(C(F)(F)F)ccc12` [Example 271, N-(4-fluoro-3-(trifluoromethyl)phenyl)-3-(5-(8-(2-hydroxyacetyl)-1-oxa-2,8-diazaspiro[4.5]dec-2-en-3-yl)-2-methoxy-benzamido)-6-(trifluoromethyl) benzo[b] thiophene-2-carboxamide], 0.379 µM.

Molecule `COc1ccc(-c2cc(C(=O)O)ccc2F)cc1C(=O)Nc1c(C(=O)Nc2ccc(F)c(C(F)(F)F)c2)sc2cc(C(F)(F)F)ccc12` [Example 128, 6-fluoro-3′-((2-((4-fluoro-3-(trifluoromethyl)phenyl)carbamoyl)-6-(trifluoromethyl)benzo[b]thiophen-3-yl)carbamoyl)-4′-methoxy-[1,1′-biphenyl]-3-carboxylic acid] had an EC50 of 0.237 µM. This EC50 lies about 1.6-fold lower than the previous one.

As to `COc1ccc(C(=O)N2CC(C(C)(C)O)C2)cc1C(=O)Nc1c(C(=O)Nc2ccc(F)c(C(F)(F)F)c2)sc2cc(C(F)(F)F)ccc12` [Example 179, N-(4-fluoro-3-(trifluoromethyl)phenyl)-3-(5-(3-(2-hydroxypropan-2-yl)azetidine-1-carbonyl)-2-methoxy-benzamido)-6-(trifluoromethyl) benzo[b] thiophene-2-carboxamide], the concentration for a half-maximal effect (EC50) stood at 0.179 µM. As to `COc1ccc(C2=NOC3CC(NC(=O)C(C)(C)O)CC23)cc1C(=O)Nc1c(C(=O)Nc2ccc(F)c(C(F)(F)F)c2)sc2cc(C(F)(F)F)ccc12` (single isomer, unassigned) [Example 262, N-[4-fluoro-3-(trifluoromethyl)phenyl]-3-{5-[5-(2-hydroxy-2-methyl-propanamido)-3aH,4H,5H,6H, 6aH-cyclopenta[d] [1,2]oxazol-3-yl]-2-methoxy-benzamido}-6-(trifluoromethyl)-1-benzothiophene-2-carboxamide], the EC50 turned out to be 0.723 µM. Molecule `COc1ccc(N2CCCC(CC(=O)O)C2)cc1C(=O)Nc1c(C(=O)Nc2ccc(F)c(C(F)(F)F)c2)sc2cc(C(F)(F)F)ccc12` (single isomer, unassigned) [Example 64, 2-(1-(3-((2-((4-fluoro-3-(trifluoromethyl)phenyl)carbamoyl)-6-(trifluoromethyl)benzo[b]thiophen-3-yl)carbamoyl)-4-methoxyphenyl)piperidin-3-yl)acetic acid] yielded an EC50 of 0.293 µM. In the case of `COc1ccc(C(=O)N2CC(C)(O)C2)cc1C(=O)Nc1c(C(=O)Nc2ccc(F)c(C(F)(F)F)c2)sc2cc(C(F)(F)F)ccc12` [Example 180, N-(4-fluoro-3-(trifluoromethyl)phenyl)-3-(5-(3-hydroxy-3-methylazetidine-1-carbonyl)-2-methoxy-benzamido)-6-(trifluoromethyl) benzo[b] thiophene-2-carboxamide] it was 0.145 µM; in that of `COc1ccc(N2CCOC(CC(C)(C)O)C2)cc1C(=O)Nc1c(C(=O)Nc2ccc(F)c(C(F)(F)F)c2)sc2cc(C(F)(F)F)ccc12` (single isomer, unassigned) [Example 228, N-(4-fluoro-3-(trifluoromethyl)phenyl)-3-(5-(2-(2-hydroxy-2-methylpropyl)morpholino)-2-methoxy-benzamido)-6-(trifluoromethyl) benzo[b] thiophene-2-carboxamide], 1.54 µM. Consider `COc1ccc(C(=O)NCC2(S(C)(=O)=O)CC2)cc1C(=O)Nc1c(C(=O)Nc2ccc(F)c(C(F)(F)F)c2)sc2cc(Cl)ncc12` [Example 196, N3-(6-chloro-2-((4-fluoro-3-(trifluoromethyl)phenyl)carbamoyl)thieno[3,2-c]pyridin-3-yl)-4-methoxy-N1-((1-(methylsulfonyl)cyclopropyl)methyl) isophthalamide], for which it took 0.07 µM to reach a half-maximal effect (EC50). To `COc1ccc(C2CCN(CCS(C)(=O)=O)C2)cc1C(=O)Nc1c(C(=O)Nc2ccc(F)c(C(F)(F)F)c2)sc2cc(C(F)(F)F)ccc12` (single isomer, unassigned) [Example 149, N-(4-fluoro-3-(trifluoromethyl)phenyl)-3-(2-methoxy-5-(1-(2-(methylsulfonyl)ethyl)pyrrolidin-3-yl)benzamido)-6-(trifluoromethyl) benzo[b] thiophene-2-carboxamide] belongs 1.2 µM; to `COc1ccc(C2CCCN(C(=O)C(C)(C)CO)C2)cc1C(=O)Nc1c(C(=O)Nc2ccc(F)c(C(F)(F)F)c2)sc2cc(C(F)(F)F)ccc12` (single isomer, unassigned) [Example 105, N-[4-fluoro-3-(trifluoromethyl)phenyl]-3-{5-[1-(3-hydroxy-2,2-dimethyl-propanoyl)piperidin-3-yl]-2-methoxy-benzamido}-6-(trifluoromethyl)-1-benzothiophene-2-carboxamide], 0.149 µM.

Consider `COc1ccc(C2CCCN(C(=O)C(=O)O)C2)cc1C(=O)Nc1c(C(=O)Nc2ccc(F)c(C(F)(F)F)c2)sc2cc(C(F)(F)F)ccc12` (stereo not drawn) [Example 81, 2-(3-(3-((2-((4-fluoro-3-(trifluoromethyl)phenyl)carbamoyl)-6-(trifluoromethyl)benzo[b]thiophen-3-yl)carbamoyl)-4-methoxyphenyl)piperidin-1-yl)-2-oxoacetic acid], for which a half-maximal effect (EC50) was put at 0.203 µM. In the case of `COc1ccc(C2CC2C(=O)NCC(C)(C)O)cc1C(=O)Nc1c(C(=O)Nc2ccc(F)c(C(F)(F)F)c2)sc2cc(C(F)(F)F)ccc12` (stereo not drawn) [Example 166, N-[4-fluoro-3-(trifluoromethyl)phenyl]-3-(5-{2-[(2-hydroxy-2-methylpropyl)carbamoyl]cyclopropyl}-2-methoxy-benzamido)-6-(trifluoromethyl)-1-benzothiophene-2-carboxamide] it was 1.63 µM.

Broadly, the EC50 is the concentration that produces a half-maximal response.

Source of the values: patent US20260265233A1, “BENZOTHIOPHENE DERIVATIVES AS RXFP1 AGONISTS” (BRISTOL-MYERS SQUIBB COMPANY, priority 2021, published 2026).
